Experimental data as given in publication PMC4865847, “Putative histidine kinase inhibitors with antibacterial effect against multi-drug resistant clinical isolates identified by in vitro and in silico screens” (Scientific Reports, 2016).
≈ marks a conversion by molar mass, not a printed value. Like-named read-outs stand apart in the source and are kept apart here.

Experiments:
[1] = biological target: T1, E. coli PhoR (PhoR^E) (Escherichia coli, UniProt P08400); assay: In vitro autophosphorylation kinase assay with γ-32P-ATP, PhoR^E; format: biochemical; conditions: for IC50: autophosphorylation, one time point (30 sec), 10% DMSO
T1 construct: The catalytic portion (DHp and CA domain) of E. coli PhoR (PhoR^E); made in house; host or cells: E. coli RIL
Procedure: (§1) To evaluate the inhibitory capacity of selected hits from DSF, SBVS and LBSS in vitro autophosphorylation kinase assays with γ-^32P-ATP were performed as previously described. Ligands were dissolved in 100% DMSO. […] Controls lacking ligands contained an equal concentration of DMSO. Inhibition of autophosphorylation was determined by incubating 0.12 mg/ml (≈4 μM) HK and up to 20 mM fragment in kinase buffer (50 mM Tris HCl, pH 8.5, 50 mM KCl, 5 mM MgCl2, 0.5 mM EDTA and 0.1 mM DTT). Autophosporylation reactions were initiated by addition of 0.1 μCi/μl γ-^32P-ATP containing from 0.03 to 0.06 μM ATP (final concentrations). Autophosphorylation was quenched with 2xSDS-PAGE sample buffer supplemented with 50 mM EDTA. […] After electrophoresis, the bottoms of the gels were removed to lower the background from the unincorporated radiolabeled ATP. Gels were dried without staining on a Bio-Rad Gel Air drying system and the phosphorylated protein was quantified by phosphor-imaging. Prism GraphPad was used for curve fitting and statistical analysis.

[2] = biological target: T2, S. pneumoniae WalK (Streptococcus pneumoniae, UniProt Q8DPL8); assay: In vitro autophosphorylation kinase assay with γ-32P-ATP, WalK; format: biochemical; conditions: autophosphorylation, one time point (30 sec), 10% DMSO
T2 construct: WalK (amino acids from 208 to 449); N-terminal His6-3C site of vector pOPINF (own knowledge of the vector); made in house; host or cells: E. coli RIL
Procedure: as §1

[3] = tested on: Staphylococcus aureus; assay: Antibacterial susceptibility testing (MIC/MBC), S. aureus; format: cell-based
Procedure: (§2) Minimal inhibitory concentrations (MICs) were determined following a standard double-dilution method. […] For S. pneumoniae MICs were determined by adapting the standard double-dilution method to anaerobic conditions and of this microorganism (use of Todd Hewitt Yeast extract with 200 U/mL of catalase and continuous monitoring of growth).

[4] = tested on: Staphylococcus epidermidis; assay: Antibacterial susceptibility testing (MIC/MBC), S. epidermidis; format: cell-based
Procedure: as §2

[5] = tested on: Escherichia coli; assay: Antibacterial susceptibility testing (MIC/MBC), E. coli; format: cell-based; conditions: Escherichia coli
Procedure: as §2

[6] = tested on: Streptococcus suis; assay: Antibacterial susceptibility testing (MIC), S. suis; format: cell-based
Procedure: (§3) Bacterial strains used in this study for antibacterial susceptibility testing (Table S5) were propagated using standard microbiological procedures. Minimal inhibitory concentrations (MICs) were determined following a standard double-dilution method. MICs were recorded as the lowest concentration of the compound where no visible growth was observed. After plating the dilutions around the MIC or growing them in fresh MH media, minimal bactericidal concentration (MBC) was recorded as the lowest concentration of the compound at which no colonies were formed or no growth was observed, respectively. For S. pneumoniae MICs were determined by adapting the standard double-dilution method to anaerobic conditions and of this microorganism (use of Todd Hewitt Yeast extract with 200 U/mL of catalase and continuous monitoring of growth).

[7] = tested on: Acinetobacter baumannii; assay: Antibacterial susceptibility testing (MIC), A. baumannii; format: cell-based; conditions: MDR clinical isolate NM8, read-out: MIC A. baumannii NM8
Procedure: as §3

[8] = tested on: Stenotrophomonas maltophilia; assay: Antibacterial susceptibility testing (MIC), S. maltophilia; format: cell-based; conditions: clinical isolate B32/1, read-out: MIC S. maltophilia B32/1
Procedure: as §3

[9] = tested on: Klebsiella pneumoniae; assay: Antibacterial susceptibility testing (MIC), K. pneumoniae; format: cell-based; conditions: Klebsiella pneumoniae, ATCC700603, strain ATCC 700603
Procedure: as §3

[10] = tested on: Pseudomonas aeruginosa; assay: Antibacterial susceptibility testing (MIC), P. aeruginosa; format: cell-based; conditions: Pseudomonas aeruginosa, ATCC27853; strain ATCC 27853
Procedure: as §3

[11] = Hemolysis assay; format: cell-based; conditions: human
Procedure: Hemolytic activity against human erythrocytes taken from a healthy donor was measured as previously described. The hemolysis experiments were carried out in accordance with the guidelines of the United Arab Emirates University (UAEU) Research Ethics Review Board. All experimental protocols were approved by the Research Ethics Review Board of UAEU and informed consent was obtained from all donors.

[12] = Solubility in kinase buffer; format: physicochemical; conditions: kinase buffer in the presence of 10% DMSO
[13] = biological target: S. aureus PhoR (PhoR^S) (Staphylococcus aureus, UniProt Q2FXN7); assay: In vitro autophosphorylation kinase assay with γ-32P-ATP, PhoR^S; format: biochemical; conditions: autophosphorylation, one time point (30 sec), 10% DMSO
Procedure: (§4) To evaluate the inhibitory capacity of selected hits from DSF, SBVS and LBSS in vitro autophosphorylation kinase assays with γ-^32P-ATP were performed as previously described. Ligands were dissolved in 100% DMSO. […] Controls lacking ligands contained an equal concentration of DMSO. Inhibition of autophosphorylation was determined by incubating 0.12 mg/ml (≈4 μM) HK and up to 20 mM fragment in kinase buffer (50 mM Tris HCl, pH 8.5, 50 mM KCl, 5 mM MgCl2, 0.5 mM EDTA and 0.1 mM DTT). Autophosporylation reactions were initiated by addition of 0.1 μCi/μl γ-^32P-ATP containing from 0.03 to 0.06 μM ATP (final concentrations). Autophosphorylation was quenched with 2xSDS-PAGE sample buffer supplemented with 50 mM EDTA. Samples were applied without heating to 15% (w/v) Tris-glycine SDS-polyacrylamide gels. After electrophoresis, the bottoms of the gels were removed to lower the background from the unincorporated radiolabeled ATP. Gels were dried without staining on a Bio-Rad Gel Air drying system and the phosphorylated protein was quantified by phosphor-imaging. Prism GraphPad was used for curve fitting and statistical analysis.

[14] = biological target: T3, T. maritima HK853 (Thermotoga maritima, UniProt Q9WZV7); assay: In vitro autophosphorylation kinase assay with γ-32P-ATP, HK853; format: biochemical
T3 sequence (Q9WZV7 232-489): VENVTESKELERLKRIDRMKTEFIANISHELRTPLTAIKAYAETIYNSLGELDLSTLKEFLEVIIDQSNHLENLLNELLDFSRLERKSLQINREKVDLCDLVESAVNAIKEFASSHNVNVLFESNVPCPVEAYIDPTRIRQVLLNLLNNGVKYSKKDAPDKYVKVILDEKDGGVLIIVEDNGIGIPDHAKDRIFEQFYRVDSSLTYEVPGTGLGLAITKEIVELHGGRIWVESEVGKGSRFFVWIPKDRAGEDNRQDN
Procedure: as §4

[15] = Staphylococcus aureus, DSM20231, strain DSM 20231, read-out: MIC S. aureus DSM 20231
[16] = Staphylococcus epidermidis, DSM20044, strain DSM 20044, read-out: MIC S. epidermidis DSM 20044
[17] = strain CFT 073, read-out: MIC E. coli CFT 073

T1 sequence (P08400 210-425): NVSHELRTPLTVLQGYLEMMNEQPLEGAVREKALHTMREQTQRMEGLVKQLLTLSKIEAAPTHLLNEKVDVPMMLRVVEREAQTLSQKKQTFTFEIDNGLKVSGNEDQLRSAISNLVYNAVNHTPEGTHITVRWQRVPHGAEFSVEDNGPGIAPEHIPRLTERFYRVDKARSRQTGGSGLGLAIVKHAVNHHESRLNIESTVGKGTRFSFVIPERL
Sequence of S. aureus PhoR (PhoR^S) (Q2FXN7 entry or part of it): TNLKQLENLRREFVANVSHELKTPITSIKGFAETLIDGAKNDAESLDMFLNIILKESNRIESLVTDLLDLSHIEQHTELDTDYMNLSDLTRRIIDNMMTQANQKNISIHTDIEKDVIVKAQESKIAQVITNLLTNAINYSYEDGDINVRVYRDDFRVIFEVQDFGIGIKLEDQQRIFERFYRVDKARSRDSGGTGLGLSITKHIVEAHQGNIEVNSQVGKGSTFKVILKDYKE
T2 sequence (Q8DPL8 208-449): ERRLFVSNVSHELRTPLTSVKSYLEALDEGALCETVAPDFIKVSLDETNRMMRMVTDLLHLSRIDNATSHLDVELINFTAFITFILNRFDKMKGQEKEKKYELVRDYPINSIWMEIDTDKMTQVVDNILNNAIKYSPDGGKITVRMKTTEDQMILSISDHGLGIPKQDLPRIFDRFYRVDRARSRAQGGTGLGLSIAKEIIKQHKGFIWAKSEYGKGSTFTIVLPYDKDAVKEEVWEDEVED

SMILES: Oc1cccc2[nH]c3ccccc3c12 [F2.8]
- inhibition at 2000 µM ([1]; 2 mM, 30 sec, compared to negative control): > 50%
- IC50 ([1]; read-out: IC50 PhoR^E): 0.72 mM
- IC50 ([2]; read-out: IC50 WalK): > 2 mM
- MIC ([3]; Staphylococcus aureus, ATCC reference strain 25293, read-out: MIC S. aureus 25293): 250 µg/mL (≈ 1360 µM)
- MBC ([3]; Staphylococcus aureus, DSM20231, strain DSM 20231, read-out: MBC S. aureus DSM 20231): 63 µg/mL (≈ 344 µM)
- MIC [3, 15]: 31 to 250 µg/mL (≈ 169 to 1360 µM)
- MIC ([3]; Staphylococcus aureus, MRSA clinical isolate 127/08, read-out: MIC S. aureus 127/08): 250 µg/mL (≈ 1360 µM)
- MIC ([3]; Staphylococcus aureus, MRSA clinical isolate 145/08, read-out: MIC S. aureus 145/08): 250 µg/mL (≈ 1360 µM)
- MIC ([3]; Staphylococcus aureus, MRSA clinical isolate 274/08, read-out: MIC S. aureus 274/08): 250 µg/mL (≈ 1360 µM)
- MIC ([3]; Staphylococcus aureus, MRSA, MRSA clinical isolate T4/6, read-out: MIC S. aureus T4/6): 250 µg/mL (≈ 1360 µM)
- MIC ([3]; Staphylococcus aureus, MRSA, MRSA clinical isolate V4180, read-out: MIC S. aureus V4180): 250 µg/mL (≈ 1360 µM)
- MIC ([3]; Staphylococcus aureus, MRSA, summary over strains, read-out: MICs for the MRSA strains and S. aureus 25293): 125 to 500 µg/mL (≈ 682 to 2730 µM)
- MIC S. aureus DSM 20231 ([3]; strain DSM 20231): 31 µg/mL (≈ 169 µM)
- MBC ([4]; Staphylococcus epidermidis, DSM20044, strain DSM 20044): 250 µg/mL (≈ 1360 µM)
- MIC [4, 16]: 31 to 500 µg/mL (≈ 169 to 2730 µM)
- MIC ([4]; Staphylococcus epidermidis, clinical isolate T7/3, read-out: MIC S. epidermidis T7/3): 63 µg/mL (≈ 344 µM)
- MIC ([4]; Staphylococcus epidermidis, clinical isolate T37/8, read-out: MIC S. epidermidis T37/8): 250 µg/mL (≈ 1360 µM)
- MIC ([4]; Staphylococcus epidermidis, clinical isolate T6119, read-out: MIC S. epidermidis T6119): 250 µg/mL (≈ 1360 µM)
- MIC ([4]; Staphylococcus epidermidis, strain RP62A (biofilm producer), read-out: MIC S. epidermidis RP62A): 250 µg/mL (≈ 1360 µM)
- MIC ([4]; Staphylococcus epidermidis, strain RP62A/1 (non-biofilm producer), read-out: MIC S. epidermidis RP62A/1): 250 µg/mL (≈ 1360 µM)
- MIC ([4]; Staphylococcus epidermidis, summary over strains, read-out: MICs for the S. epidermidis strains): 31 to 250 µg/mL (≈ 169 to 1360 µM)
- MIC S. epidermidis DSM 20044 ([4]; strain DSM 20044): 31 µg/mL (≈ 169 µM)
- MIC ([5]; ATCC25276, strain ATCC 25276, read-out: MIC E. coli ATCC 25276): 500 µg/mL (≈ 2730 µM)
- MBC ([5]; strain CFT 073, read-out: MBC E. coli CFT 073): 500 µg/mL (≈ 2730 µM)
- MIC ([5]; summary over E. coli strains, read-out: antibacterial effects (MIC) against E. coli): ≥ 63 µg/mL
- MIC ([6]; Streptococcus suis, read-out: MIC Streptococcus suis 3881/S10, strain 3881/S10): 250 µg/mL (≈ 1360 µM)
- MIC Streptococcus suis 3881/S10 ([6]; strain 3881/S10): 125 µg/mL (≈ 682 µM)
- MIC [7]: > 500 µg/mL
- MIC [8]: > 500 µg/mL
- MIC [9]: 250 µg/mL (≈ 1360 µM)
- MIC [10]: > 500 µg/mL
- HC50 [11]: > 500 µg/mL
- solubility in kinase buffer [12]: good solubility

SMILES: CNC(=O)NC(=O)CSc1nc2sc3c(c2c(=O)n1-c1ccccc1F)CCCC3 [S4]
- IC50 ([13]; IC50 PhoR^S): > 5 mM
- IC50 ([1]; IC50 PhoR^E): > 5 mM
- IC50 [14]: > 5 mM
- IC50 ([2]; IC50 WalK): > 5 mM
- MIC [3, 15]: > 500 µg/mL
- MIC [4, 16]: > 500 µg/mL
- MIC [5, 17]: > 500 µg/mL

SMILES: CC(NCc1cccc(F)c1)c1ccc2ccccc2c1 (centres unmarked) [S10]
- IC50 ([13]; IC50 PhoR^S): > 5 mM
- IC50 ([1]; IC50 PhoR^E): > 5 mM
- IC50 [14]: > 5 mM
- IC50 ([2]; IC50 WalK): > 5 mM
- MIC [3, 15]: > 500 µg/mL
- MIC [4, 16]: > 500 µg/mL
- MIC [5, 17]: > 500 µg/mL

SMILES: c1ccc2cc(CNc3ccc4c(c3)OCCO4)ccc2c1 [S7]
- IC50 ([13]; read-out: IC50 PhoR^S): < 5 mM
- IC50 ([1]; IC50 PhoR^E): > 5 mM
- IC50 [14]: > 5 mM
- IC50 ([2]; IC50 WalK): > 5 mM
- MIC [3, 15]: > 500 µg/mL
- MBC S. aureus DSM 20231 ([3]; strain DSM 20231): > 500 µg/mL
- MIC [4, 16]: > 500 µg/mL
- MIC [5, 17]: > 500 µg/mL

SMILES: O=C(CCN1c2ccccc2Sc2ccccc21)OCc1cc(=O)n2ccsc2n1 [S1]
- IC50 ([13]; IC50 PhoR^S): > 5 mM
- IC50 ([1]; IC50 PhoR^E): > 5 mM
- IC50 [14]: > 5 mM
- IC50 ([2]; IC50 WalK): > 5 mM
- MIC [3, 15]: > 500 µg/mL
- MIC [4, 16]: > 500 µg/mL
- MIC [5, 17]: > 500 µg/mL
